The target in test [1] is Transthyretin (Homo sapiens) (UniProt P02766). Kind of test: Ability to displace L-[125I]thyoxine from the high affinity prealbumin binding site was expressed as ratio of its apparent association constant to that of DL-thyroxine.
The target is the same in test [2]. Kind of test: Ability to displace L-[125I]thyoxine from the high affinity prealbumin binding site was expressed as ratio of its apparent association constant to that of L-thyroxine.

Regarding `NC(Cc1cc(I)c(Oc2cccc3c(O)cccc23)c(I)c1)C(=O)O` (configuration not stated), in test [1], the Ka(T4) came to 6.3%.
Same read-out and setting: the result for `NC(Cc1cc(I)c(Oc2cc(Br)c(O)c(Br)c2)c(I)c1)C(=O)O` (configuration not stated) reads 8.6%.
For `NC(Cc1cc(I)c(Oc2ccc(O)c(Br)c2)c(I)c1)C(=O)O` (configuration not stated), the Ka(T4) in test [1] is 1.6%.
As to `NC(Cc1cc(I)c(Oc2ccc(O)c3ccccc23)c(I)c1)C(=O)O` (configuration not stated), the Ka(T4) in test [1] was determined as 1.6%.
Still for that read-out and setting: the result for `NC(Cc1cc(I)c(Oc2cc(Br)c(O)c3ccccc23)c(I)c1)C(=O)O` (configuration not stated) reads 28.7%.
As to `NC(Cc1cc(I)c(Oc2cccc3ccc(O)cc23)c(I)c1)C(=O)O` (configuration not stated), the Ka(T4) in test [2] came out at 0.7%.
Consider `NC(Cc1cc(I)c(Oc2ccc(O)cc2)c(I)c1)C(=O)O` (configuration not stated), for which the Ka(T4) in test [1] turned out to be 0.3%.
